Assay: passive permeability, PAMPA, ADME assay (AID 1508612)
Conditions: pH 7.4, 30.0 min, 50.0 µM

## c1cn2cc(-c3ccc4cn[nH]c4c3)nc(Nc3ccc(N4CCOCC4)cc3)c2n1
  Papp: 391 ×10⁻⁶ cm/s

## CC(C)c1ccccc1-c1ncc(F)c(NCc2ccc(-n3ccnn3)cc2)n1
  Papp: > 1000 ×10⁻⁶ cm/s

## COc1ccc(-c2ccc3nc(-c4ccc(SC)cc4)oc3c2)c(OC)c1OC
  Papp: < 1 ×10⁻⁶ cm/s

## Oc1cccc(-c2nc(N3CCOCC3)c3oc4ncccc4c3n2)c1
  Papp: 537 ×10⁻⁶ cm/s

## O=[S+]([O-])(Nc1nccs1)c1ccc(NCc2cccc(Cl)c2)cc1
  Papp: 395 ×10⁻⁶ cm/s

## CCOC(=O)NNc1ccc(N(CC)CC(C)O)nn1 (centres undefined)
  Papp: 10.7 ×10⁻⁶ cm/s

## Nc1nc2c(s1)C(c1cc(Cl)ccc1F)CC(=O)N2 (centres undefined)
  Papp: 476 ×10⁻⁶ cm/s

## O=C(Nc1nc(-c2ccccc2)cs1)c1ccncc1NS(=O)(=O)c1cccnc1
  Papp: 50.8 ×10⁻⁶ cm/s

## c1ccc(-c2nc(N3CCCCCC3)c3ccccc3n2)nc1
  Papp: > 1000 ×10⁻⁶ cm/s

## CC(=O)N1CCN(c2nc(-c3ccc(Br)cc3)cs2)CC1
  Papp: 995 ×10⁻⁶ cm/s

## Fc1cnc(-c2ccccc2C(F)F)nc1NCC1CCN(c2cnccn2)C1 (centres undefined)
  Papp: > 1000 ×10⁻⁶ cm/s

## O=C(O)Cc1ccc2oc(-c3ccc(NC(=O)/C=C/c4ccc(Br)cc4)c(F)c3)nc2c1
  Papp: 6.63 ×10⁻⁶ cm/s

## Cc1ccc(S(=O)(=O)Nc2cnccc2C(=O)Nc2nc(-c3cccc(C)c3)cs2)cc1
  Papp: 729 ×10⁻⁶ cm/s

## COc1ccc(-c2nc3c(c(SCC(=O)Nc4ccc(C(=O)O)cc4)n2)Cc2ccccc2O3)cc1
  Papp: 1.18 ×10⁻⁶ cm/s

## CC(C)c1c(-c2ccccc2)nc2c(C#N)c[nH]n2c1=O
  Papp: 9.91 ×10⁻⁶ cm/s

## CS(=O)(=O)CCNCc1ccc(-c2ccc3ncnc(Nc4ccc(OCc5cccc(F)c5)c(Cl)c4)c3c2)o1
  Papp: < 1 ×10⁻⁶ cm/s

## C=Cc1ccc(C(=O)N2CCCC(CCC(=O)N3CCN(c4ccccn4)CC3)C2)cc1 (centres undefined)
  Papp: 421 ×10⁻⁶ cm/s

## COc1cc(NC(=O)c2cc(-c3ccccc3O)no2)cc(OC)c1OC
  Papp: 680 ×10⁻⁶ cm/s

## Cn1cncc1[C@@](N)(c1ccc(Cl)cc1)c1ccc2c(c1)c(-c1cccc(Cl)c1)cc(=O)n2C
  Papp: > 1000 ×10⁻⁶ cm/s

## CCOC(=O)c1csc(NC(=O)c2ccncc2NS(=O)(=O)c2ccc(C)cc2)n1
  Papp: 114 ×10⁻⁶ cm/s

## Oc1ccc(CNc2ccc(C(F)(F)F)cc2F)c2cccnc12
  Papp: 150 ×10⁻⁶ cm/s

## Cn1ccc2c(C(=O)NCCC(N)=O)nc(-c3cccc(CO)c3)cc21
  Papp: 29.9 ×10⁻⁶ cm/s

## CC(C)(N)C(=O)N[C@H](COCc1ccccc1)C(=O)N1CCC2(CC1)CN(S(C)(=O)=O)c1ccccc12
  Papp: 819 ×10⁻⁶ cm/s

## Cc1ccc(OCCn2c(CCNC(=O)C3CCCCC3)nc3ccccc32)cc1
  Papp: > 1000 ×10⁻⁶ cm/s

## C[C@@]1(c2ncncc2F)NC(=O)c2cc(-c3cn[nH]c3)ccc21
  Papp: 52.1 ×10⁻⁶ cm/s

## Cc1ccc(-c2[nH]n3c(=O)c4c(nc3c2C)CCCC4)cc1
  Papp: 506 ×10⁻⁶ cm/s

## CN1C(=O)c2ccccc2[S@](=O)c2ccc(C(=O)NCCc3cccs3)cc21
  Papp: 626 ×10⁻⁶ cm/s

## CCOc1ccc(CCNC(=O)c2cc3ccccc3n2Cc2cc(C)cc(C)n2)cc1OCC
  Papp: > 1000 ×10⁻⁶ cm/s

## CCCCN(C)C(=O)c1c(C)sc2ccn(CCC)c(=O)c12
  Papp: 124 ×10⁻⁶ cm/s

## Cc1ccc(NC(=O)c2c(N3CCCC3=O)c3cc(C)ccc3n2C)c(C)c1
  Papp: > 1000 ×10⁻⁶ cm/s

## CC(=O)c1c(C)[nH]c(C(=O)Nc2cccc([S+](=O)([O-])N3CC[C@@H](F)C3)c2)c1C
  Papp: 199 ×10⁻⁶ cm/s

## COc1ccc(NC(=O)c2[nH]c(C)c(C(C)=O)c2C)cc1[S+](=O)([O-])Nc1ccccc1C#N
  Papp: 71 ×10⁻⁶ cm/s

## CC(C)c1ccc2oc3nc(N)c(C(=O)O)cc3c(=O)c2c1
  Papp: 9.71 ×10⁻⁶ cm/s

## COc1cc(C2c3c(oc4cc(C)c(C)cc4c3=O)C(=O)N2CCCN2CCOCC2)ccc1O (centres undefined)
  Papp: 118 ×10⁻⁶ cm/s

## Oc1ccc2[nH]cc(CCCCN3CC=C(c4ccccc4)CC3)c2c1
  Papp: > 1000 ×10⁻⁶ cm/s

## FC(F)(F)c1ccc(N2CCN(C(=S)Nc3ccccn3)CC2)cc1
  Papp: 815 ×10⁻⁶ cm/s

## CCCS(=O)(=O)c1nc(NC2CC2)cc(-c2ccc3c(ccn3C3CC(C)(C)NC(C)(C)C3)c2)n1
  Papp: 107 ×10⁻⁶ cm/s

## Cc1onc(-c2ccccc2)c1C(=O)Nc1nnc(COc2ccc(Cl)cc2)s1
  Papp: 247 ×10⁻⁶ cm/s

## Cn1nnnc1SCCCNCc1cccc(OCc2ccccc2Cl)c1
  Papp: > 1000 ×10⁻⁶ cm/s

## CCc1ccc(NC(=O)c2[nH]c(C)c(C(C)=O)c2C)cc1S(=O)(=O)Nc1cccc(C#N)c1
  Papp: 178 ×10⁻⁶ cm/s

## CCCCCn1c(=O)[nH]c2cc(C(=O)NCCCN3CCC(C)CC3)ccc2c1=O
  Papp: 91.7 ×10⁻⁶ cm/s

## O=C(NCCc1cnc[nH]1)c1ccc(-c2ncc3cnc(-c4cccc(F)c4)cn23)cc1
  Papp: < 1 ×10⁻⁶ cm/s

## O=C(Nc1ccc(-c2ccccc2)cc1)[C@H](Cc1ccc(O[S+](=O)([O-])c2cccc3cnccc23)cc1)N[S+](=O)([O-])c1cccc2cnccc12
  Papp: 18.5 ×10⁻⁶ cm/s

## CCOC(=O)c1ccc(NC(=O)CSc2nc3c(cc2C#N)N2CCC3CC2)cc1
  Papp: 422 ×10⁻⁶ cm/s

## Fc1cnc(-c2ccccc2C(F)F)nc1NCc1ccc(-c2ccn[nH]2)cc1
  Papp: > 1000 ×10⁻⁶ cm/s

## Cc1cc(N=Nc2ccc(S(=O)(=O)Nc3ccccn3)cc2)c(N)cc1O
  Papp: 29.4 ×10⁻⁶ cm/s

## CO[C@@H]1/C=C\O[C@@]2(C)Oc3c(C)c(O)c4c(c3C2=O)C(=N[C@H]2CC[C@H](O)O[C@@H]2C)C=C(NC(=O)/C(C)=C\C(=O)[C@@H]2C[C@@H]2[C@@H](O)[C@H](C)[C@@H](O)[C@H](C)[C@H](OC(C)=O)[C@@H]1C)C4=O
  Papp: 2.33 ×10⁻⁶ cm/s

## Fc1cnc(-c2ccccc2C(F)F)nc1NCc1ccc(-n2ccnn2)cc1
  Papp: > 1000 ×10⁻⁶ cm/s

## CN1C(=O)c2ccccc2[S@](=O)c2ccc(C(=O)NCCN3CCCC3)cc21
  Papp: 94.2 ×10⁻⁶ cm/s

## CCCCCCOc1ccc(OC(=O)c2ccncc2)cc1
  Papp: 600 ×10⁻⁶ cm/s

## Clc1ccc(C2=Nn3c(nnc3-c3ccncc3)SC2)cc1
  Papp: 372 ×10⁻⁶ cm/s

## O=C1c2ccccc2C2=Nc3ccccc3SC(c3ccc(Cl)cc3)C12 (centres undefined)
  Papp: < 1 ×10⁻⁶ cm/s

## O=C(O)C1CCN(c2ncc(-c3ccc4c(c3)OCCCO4)s2)CC1
  Papp: 10.1 ×10⁻⁶ cm/s

## Cc1cccc(-n2ncc3c2CCCC3NC(=O)c2c(F)ccc(F)c2F)c1C (centres undefined)
  Papp: 916 ×10⁻⁶ cm/s

## CCc1nnc(NC(=O)c2nc(S(=O)(=O)Cc3ccc(C)cc3)ncc2Cl)s1
  Papp: 32.9 ×10⁻⁶ cm/s

## COc1ccccc1CNS(=O)(=O)c1ccc(-c2cnc(C3CC3)o2)cc1
  Papp: > 1000 ×10⁻⁶ cm/s

## CS(=O)(=O)c1ccc2nc(NC(=O)C3CC3)sc2c1
  Papp: 106 ×10⁻⁶ cm/s

## C=CC(=O)Nc1cccc(Oc2nc(Nc3ccc(N4CCN(C)CC4)cc3)ncc2Cl)c1
  Papp: > 1000 ×10⁻⁶ cm/s

## Cc1cc(C)nc(NC(=S)N2CCN(c3cccc([N+](=O)[O-])c3)CC2)c1
  Papp: > 1000 ×10⁻⁶ cm/s

## CC(=O)N1CCc2c(sc3c2c(=O)n(-c2ccccc2)c(=O)n3Cc2cccc(C(F)(F)F)c2)C1
  Papp: > 1000 ×10⁻⁶ cm/s

## O=C1Nc2ccccc2/C1=C\c1cc(Br)c(O)c(Br)c1
  Papp: 50.5 ×10⁻⁶ cm/s

## COc1cc2cc(CN3CCC(N(C)C)C3)c(-c3cccc(Cl)c3)nc2cc1OC (centres undefined)
  Papp: > 1000 ×10⁻⁶ cm/s

## Cc1cnc(-c2ccccc2C(F)F)nc1NCc1ccc(-c2cccnc2)cc1
  Papp: > 1000 ×10⁻⁶ cm/s

## Cn1nnnc1Sc1ncnc2scc(-c3ccccc3F)c12
  Papp: 338 ×10⁻⁶ cm/s

## O=C1Nc2ccccc2/C1=C/c1ccc[nH]1
  Papp: 606 ×10⁻⁶ cm/s

## COc1cccc(CNc2ccc(S(=O)(=O)Nc3cccs3)cc2)c1O
  Papp: 572 ×10⁻⁶ cm/s

## O=C(Nc1cccnc1)c1cccs1
  Papp: 56.5 ×10⁻⁶ cm/s

## COC(=O)Nc1nc2ccc(C(=O)c3ccccc3)cc2[nH]1
  Papp: 282 ×10⁻⁶ cm/s

## Cc1ccc(S(=O)(=O)Nc2cc(F)ccc2C(=O)Nc2nc(-c3ccccc3)cs2)cc1
  Papp: 244 ×10⁻⁶ cm/s

## COc1ccc(NC(=O)c2c(C)cccc2C)cc1[S+](=O)([O-])N1CCCCC1
  Papp: 548 ×10⁻⁶ cm/s

## CCC(CC)(NC(=O)C(C)C)C(=O)N[C@@H](CCCN=C(N)N)C(=O)NC1(C(=O)NC(c2ccc(F)cc2)c2ccc(F)cc2)CCCC1
  Papp: 8 ×10⁻⁶ cm/s

## N#Cc1cccc(-c2nccc(-n3ccnc3)n2)c1
  Papp: 492 ×10⁻⁶ cm/s

## O=C(N/N=C/c1ccc(Sc2ccccn2)o1)c1ccncc1
  Papp: 76.8 ×10⁻⁶ cm/s

## Cc1ccc(-c2csc(Nc3ccc(S(=O)(=O)Nc4nccs4)cc3)n2)cc1C
  Papp: 22 ×10⁻⁶ cm/s

## CCn1ncc(NC(=O)Cn2ncc3cc(-c4cccc(OC)c4)ccc32)n1
  Papp: > 1000 ×10⁻⁶ cm/s

## N#Cc1ccc(-c2ccc(CNc3ccc(C4CCNCC4)cc3)o2)cc1
  Papp: 459 ×10⁻⁶ cm/s

## Nc1nc2c(s1)C(c1ccccc1OCc1ccccc1Cl)CC(=O)N2 (centres undefined)
  Papp: 509 ×10⁻⁶ cm/s

## CCCOC(=O)c1ccc(Oc2c(-c3ccc(O)cc3O)n[nH]c2C)cc1
  Papp: > 1000 ×10⁻⁶ cm/s

## Cc1ccc(-c2cc(C(=O)Nc3cccc(S(N)(=O)=O)c3)c3ccccc3n2)cc1C
  Papp: 11.8 ×10⁻⁶ cm/s

## COc1ccc(-c2nc(N3CCOCC3)c3sc(CN(C)c4ncc(C(=O)NO)cn4)cc3n2)cn1
  Papp: 496 ×10⁻⁶ cm/s

## NC(=O)C1CCN(c2nccc(-c3ccc4c(c3)OCCO4)n2)CC1
  Papp: 289 ×10⁻⁶ cm/s

## CN(C(=O)CNC(=O)c1ccccc1OCC(=O)Nc1ccc(I)cc1)c1ccccc1
  Papp: > 1000 ×10⁻⁶ cm/s

## CCN(CC)CCOc1ccc2c(=O)c3ccc(Cl)cc3n(CCN(CC)CC)c2c1
  Papp: > 1000 ×10⁻⁶ cm/s

## COc1ccc(C(=O)NC2CCCc3c2[nH]c2ccccc32)cc1OC (centres undefined)
  Papp: 38.1 ×10⁻⁶ cm/s

## Cc1cc(SCc2sc(-c3ccc(C(F)(F)F)c(F)c3)nc2C)ccc1OCC(=O)O
  Papp: 417 ×10⁻⁶ cm/s

## Cc1noc(C)c1Cc1ccc(C(=O)N2CCc3c(nc4cc(-c5ccccc5)[nH]n4c3=O)C2)o1
  Papp: 7.01 ×10⁻⁶ cm/s

## CN(Cc1ccc(/C=C/C(=O)NO)cc1)CC12CC3CC(CC(C3)C1)C2
  Papp: > 1000 ×10⁻⁶ cm/s

## CCc1cccc(NS(=O)(=O)c2ccc3c(c2)CC(C)N3C(=O)C2CC2)c1 (centres undefined)
  Papp: > 1000 ×10⁻⁶ cm/s

## Cc1noc(C)c1C(=O)N1CCC2(CC1)CCN(C(c1ccccc1)c1ccccc1)CC2
  Papp: > 1000 ×10⁻⁶ cm/s

## Clc1cccc(-c2ccc(-c3nnc(CCCc4ccc5cccnc5n4)o3)cc2)c1
  Papp: > 1000 ×10⁻⁶ cm/s

## Cc1ccc(NS(=O)(=O)c2cccc(C(=O)O)c2)cc1S(=O)(=O)N1CCOCC1
  Papp: 23.4 ×10⁻⁶ cm/s

## COc1ccccc1-c1nc(NCc2cnc(C)cn2)c2ccccc2n1
  Papp: > 1000 ×10⁻⁶ cm/s

## O=C(Nc1nc(-c2ccccc2)cs1)c1ccncc1NS(=O)(=O)c1ccc2ccccc2c1
  Papp: > 1000 ×10⁻⁶ cm/s

## CCOC(=O)C1=C(C)NC(=O)CC1C(=O)Nc1cc(Cl)cc(Cl)c1 (centres undefined)
  Papp: 599 ×10⁻⁶ cm/s

## CCOC(=O)C1=C(CN(CC)Cc2ccccc2)NC(=O)NC1c1ccc(OC(C)C)cc1 (centres undefined)
  Papp: > 1000 ×10⁻⁶ cm/s

## CCNC(=O)c1ccc(-c2ccc3ncnc(NCC4CCCO4)c3c2)o1 (centres undefined)
  Papp: 146 ×10⁻⁶ cm/s

## O=[S+]([O-])(Nc1nccs1)c1ccc(NCc2cccc3c2NCC3)cc1
  Papp: 18.9 ×10⁻⁶ cm/s

## c1cc(-c2cc(-c3ccncc3)c3cncn3c2)c2cc[nH]c2c1
  Papp: 236 ×10⁻⁶ cm/s

## O=c1cc(CN2CCCN(c3ccc(C(F)(F)F)cn3)CC2)nc2ccccn12
  Papp: > 1000 ×10⁻⁶ cm/s

## Cc1cc(Cl)ccc1COc1ccnn1-c1cc(C(=O)O)ccn1
  Papp: 5.16 ×10⁻⁶ cm/s

## NC(=O)C1CCN(c2ncc(-c3cccc(N4CCCCC4)c3)s2)CC1
  Papp: 924 ×10⁻⁶ cm/s

## Cc1cc(C)nc(N2CCCC(C(=O)NCCc3ccc(F)cc3)C2)n1 (centres undefined)
  Papp: 62.2 ×10⁻⁶ cm/s

## S=c1[nH]c2ccccc2n1CCc1ccccc1
  Papp: 126 ×10⁻⁶ cm/s

## Cc1ccc(-c2cc(C(=O)NCc3ccc(S(N)(=O)=O)cc3)c3ccccc3n2)cc1C
  Papp: 71 ×10⁻⁶ cm/s

— PubChem BioAssay AID1508612
